What follows are compounds tested against T1, human kinase Mps-1 (Homo sapiens, UniProt P33981) (assay: Mps-1 kinase assay (HTRF)). Conditions: lowATP; mean; read-out: Mps1 lowATP mean IC50.
T1 construct: N-terminally GST-tagged human full length recombinant Mps-1 kinase; purchased Invitrogen, Karslruhe, Germany PV4071
T1 sequence (P33981 1-857): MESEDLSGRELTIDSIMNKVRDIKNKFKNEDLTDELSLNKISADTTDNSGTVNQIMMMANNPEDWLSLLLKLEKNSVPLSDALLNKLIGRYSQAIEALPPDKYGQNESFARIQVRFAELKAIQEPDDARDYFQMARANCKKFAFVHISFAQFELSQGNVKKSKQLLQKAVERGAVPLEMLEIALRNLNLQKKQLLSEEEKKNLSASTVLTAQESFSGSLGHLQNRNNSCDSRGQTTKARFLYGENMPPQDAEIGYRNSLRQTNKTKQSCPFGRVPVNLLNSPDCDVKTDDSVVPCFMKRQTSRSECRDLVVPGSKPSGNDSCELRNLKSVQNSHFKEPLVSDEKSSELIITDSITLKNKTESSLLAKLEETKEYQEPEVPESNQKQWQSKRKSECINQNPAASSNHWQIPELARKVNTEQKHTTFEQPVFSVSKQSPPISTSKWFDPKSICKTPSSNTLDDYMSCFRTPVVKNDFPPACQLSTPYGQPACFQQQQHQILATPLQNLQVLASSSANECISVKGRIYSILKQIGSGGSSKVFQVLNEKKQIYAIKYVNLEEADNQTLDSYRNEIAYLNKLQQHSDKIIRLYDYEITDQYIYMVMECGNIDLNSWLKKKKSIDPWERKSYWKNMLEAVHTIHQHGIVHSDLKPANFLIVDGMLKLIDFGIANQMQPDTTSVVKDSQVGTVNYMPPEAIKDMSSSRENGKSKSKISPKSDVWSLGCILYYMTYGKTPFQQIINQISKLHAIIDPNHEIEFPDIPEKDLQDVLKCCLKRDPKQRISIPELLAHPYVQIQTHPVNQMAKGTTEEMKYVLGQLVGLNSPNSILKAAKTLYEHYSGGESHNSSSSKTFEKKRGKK
Assay type: biochemical
Procedure, shortened: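 HTRF readout: EDTA-stopped reactions incubated 1 h with europium anti-phospho(Ser/Thr) antibody and streptavidin-XLent, emission ratio 665/620 nm after 350 nm excitation. Kinase step: compound pre-bound 15 min to ~1 nM GST-Mps-1, then 60 min at 22 °C with ATP and biotin-peptide substrate; inhibition scaled between no-inhibitor (0%) and no-enzyme (100%) controls.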

Compared with `CC(C)CNc1nc2ccccc2n2c(-c3ccc(C(=O)Nc4cc[nH]n4)cc3)cnc12` [Example 3-1, 4-{4-[(2-methylpropyl)amino]imidazo[1,2-a]quinoxalin-1-yl}-N-(1H-pyrazol-3-yl)benzamide], `CC(C)CNc1nc2ccccc2n2c(-c3ccc(C(=O)Nc4ccn(C)n4)cc3)cnc12` [Example 3-23, 4-{4-[(2-methylpropyl)amino]imidazo[1,2-a]quinoxalin-1-yl}-N-(1-methyl-1H-pyrazol-3-yl)benzamide] is 4-fold lower in IC50: 3.95 µM for the first, 0.997 µM for the second. The second is the more potent here.

Compared with `CCCNC(=O)c1ccc(-c2cnc3c(NCC(C)C)nc4ccccc4n23)cc1` [Example 3-2, 4-{4-[(2-methylpropyl)amino]imidazo[1,2-a]quinoxalin-1-yl}-N-propylbenzamide], `CCNC(=O)c1ccc(-c2cnc3c(NCC(C)C)nc4ccccc4n23)cc1` [Example 3-8, N-ethyl-4-{4-[(2-methylpropyl)amino]imidazo[1,2-a]quinoxalin-1-yl}benzamide] is 2.8-fold lower in IC50: 0.369 µM for the first, 0.134 µM for the second. The second is the more potent here.

First: CCN(CC)C(=O)c1ccc(-c2cnc3c(NCC(C)C)nc4ccccc4n23)cc1 [Example 3-3, N,N-diethyl-4-{4-[(2-methylpropyl)amino]imidazo[1,2-a]quinoxalin-1-yl}benzamide]
Second: CC(C)CNc1nc2ccccc2n2c(-c3ccc(C(=O)NCCO)cc3)cnc12 [Example 3-4, N-(2-hydroxyethyl)-4-{4-[(2-methylpropyl)amino]imidazo[1,2-a]quinoxalin-1-yl}benzamide]
The IC50 of the first is 11-fold higher: 19.7 µM for the first, 1.79 µM for the second. The second is the more potent here.

`CC(C)CNc1nc2ccccc2n2c(-c3ccc(C(=O)NCCCN4CCCC4=O)cc3)cnc12` [Example 3-5, 4-{4-[(2-methylpropyl)amino]imidazo[1,2-a]quinoxalin-1-yl}-N-[3-(2-oxopyrrolidin-1-yl)propyl]benzamide] and `CC(C)CNc1nc2ccccc2n2c(-c3ccc(C(=O)NCCN4CCNC4=O)cc3)cnc12` [Example 3-18, 4-{4-[(2-methylpropyl)amino]imidazo[1,2-a]quinoxalin-1-yl}-N-[2-(2-oxoimidazolidin-1-yl)ethyl]benzamide] are within 1.5-fold of each other in IC50: 15.3 µM for the first, 11.9 µM for the second.

Compared with `CC(C)CNc1nc2ccccc2n2c(-c3ccc(C(=O)NC4CCN(Cc5ccccc5)CC4)cc3)cnc12` [Example 3-7, N-(1-benzylpiperidin-4-yl)-4-{4-[(2-methylpropyl)amino]imidazo[1,2-a]quinoxalin-1-yl}benzamide], `CC(C)CNc1nc2ccccc2n2c(-c3ccc(C(=O)NC4(c5ccccn5)CC4)cc3)cnc12` [Example 3-25, 4-{4-[(2-methylpropyl)amino]imidazo[1,2-a]quinoxalin-1-yl}-N-[1-(pyridin-2-yl)cyclopropyl]benzamide] is 11-fold lower in IC50: 15.8 µM for the first, 1.42 µM for the second. The second is the more potent here.

First: CC(C)CNc1nc2ccccc2n2c(-c3ccc(C(=O)Nc4ccc(S(N)(=O)=O)cc4)cc3)cnc12 [Example 3-9, 4-{4-[(2-methylpropyl)amino]imidazo[1,2-a]quinoxalin-1-yl}-N-(4-sulfamoylphenyl)benzamide]
Second: CC(C)CNc1nc2ccccc2n2c(-c3ccc(C(=O)Nc4cccc(C(N)=O)c4)cc3)cnc12 [Example 3-10, N-(3-carbamoylphenyl)-4-{4-[(2-methylpropyl)amino]imidazo[1,2-a]quinoxalin-1-yl}benzamide]
The IC50 of the first is 7.6-fold higher: 6.59 µM for the first, 0.865 µM for the second. The second is the more potent here.

Compared with `CC(C)CNc1nc2ccccc2n2c(-c3ccc(C(=O)Nc4ccccc4C(N)=O)cc3)cnc12` [Example 3-11, N-(2-carbamoylphenyl)-4-{4-[(2-methylpropyl)amino]imidazo[1,2-a]quinoxalin-1-yl}benzamide], `CC(=O)Nc1cccc(NC(=O)c2ccc(-c3cnc4c(NCC(C)C)nc5ccccc5n34)cc2)c1` [Example 3-14, N-[3-(acetylamino)phenyl]-4-{4-[(2-methylpropyl)amino]imidazo[1,2-a]quinoxalin-1-yl}benzamide] is 31-fold lower in IC50: 19.4 µM for the first, 0.624 µM for the second.

First: CC(C)CNc1nc2ccccc2n2c(-c3ccc(C(=O)NCC(N)=O)cc3)cnc12 [Example 3-12, N-(2-amino-2-oxoethyl)-4-{4-[(2-methylpropyl)amino]imidazo[1,2-a]quinoxalin-1-yl}benzamide]
Second: CC(C)CNc1nc2ccccc2n2c(-c3ccc(C(=O)NCCC(N)=O)cc3)cnc12 [Example 3-17, N-(3-amino-3-oxopropyl)-4-{4-[(2-methylpropyl)amino]imidazo[1,2-a]quinoxalin-1-yl}benzamide]
The IC50 of the first is 5.1-fold lower: 1.51 µM for the first, 7.72 µM for the second.

First: C#CCNC(=O)c1ccc(-c2cnc3c(NCC(C)C)nc4ccccc4n23)cc1 [Example 3-13, 4-{4-[(2-methylpropyl)amino]imidazo[1,2-a]quinoxalin-1-yl}-N-(prop-2-yn-1-yl)benzamide]
Second: CNC(=O)CNC(=O)c1ccc(-c2cnc3c(NCC(C)C)nc4ccccc4n23)cc1 [Example 3-19, N-[2-(methylamino)-2-oxoethyl]-4-{4-[(2-methylpropyl)amino]imidazo[1,2-a]quinoxalin-1-yl}benzamide]
The IC50 of the first is 280-fold lower: 0.0412 µM for the first, 11.6 µM for the second. The first is the more potent here.

First: CC(C)CNc1nc2ccccc2n2c(-c3ccc(C(=O)NC(C)CO)cc3)cnc12 (stereo not shown) [Example 3-15, N-(1-hydroxypropan-2-yl)-4-{4-[(2-methylpropyl)amino]imidazo[1,2-a]quinoxalin-1-yl}benzamide]
Second: CC(C)CNc1nc2ccccc2n2c(-c3ccc(C(=O)NC4(C)CC4)cc3)cnc12 [Example 3-32, N-(1-methylcyclopropyl)-4-{4-[(2-methylpropyl)amino]imidazo[1,2-a]quinoxalin-1-yl}benzamide]
The IC50 of the first is 6.9-fold higher: 1.09 µM for the first, 0.158 µM for the second.

`CC(C)CNc1nc2ccccc2n2c(-c3ccc(C(=O)NCCc4ccncc4)cc3)cnc12` [Example 3-16, 4-{4-[(2-methylpropyl)amino]imidazo[1,2-a]quinoxalin-1-yl}-N-[2-(pyridin-4-yl)ethyl]benzamide] and `CC(C)CNc1nc2ccccc2n2c(-c3ccc(C(=O)NCCc4cccnc4)cc3)cnc12` [Example 3-20, 4-{4-[(2-methylpropyl)amino]imidazo[1,2-a]quinoxalin-1-yl}-N-[2-(pyridin-3-yl)ethyl]benzamide] are within 1.5-fold of each other in IC50: 5.87 µM for the first, 4.48 µM for the second.

Going from `CC(C)CNc1nc2ccccc2n2c(-c3ccc(C(=O)NC4CC4F)cc3)cnc12` (stereo not shown) [Example 3-21, N-(2-fluorocyclopropyl)-4-{4-[(2-methylpropyl)amino]imidazo[1,2-a]quinoxalin-1-yl}benzamide] to `CC(C)CNc1nc2ccccc2n2c(-c3ccc(C(=O)NC4CC4C)cc3)cnc12` (stereo not shown) [Example 3-29, N-(2-methylcyclopropyl)-4-{4-[(2-methylpropyl)amino]imidazo[1,2-a]quinoxalin-1-yl}benzamide], the IC50 rises from 0.00775 µM to 0.0138 µM (1.8-fold).

`CC(C)CNc1nc2ccccc2n2c(-c3ccc(C(=O)NC4(C#N)CC4)cc3)cnc12` [Example 3-22, N-(1-cyanocyclopropyl)-4-{4-[(2-methylpropyl)amino]imidazo[1,2-a]quinoxalin-1-yl}benzamide] and `CC(C)CNc1nc2ccccc2n2c(-c3ccc(C(=O)NC4(CO)CC4)cc3)cnc12` [Example 3-30, N-[1-(hydroxymethyl)cyclopropyl]-4-{4-[(2-methylpropyl)amino]imidazo[1,2-a]quinoxalin-1-yl}benzamide] are within 1.5-fold of each other in IC50: 0.214 µM for the first, 0.275 µM for the second.

First: CCn1nccc1C(=O)Nc1cccc(NC(=O)c2ccc(-c3cnc4c(NCC(C)C)nc5ccccc5n34)cc2)c1 [Example 3-24, 1-ethyl-N-{3-[(4-{4-[(2-methylpropyl)amino]imidazo[1,2-a]quinoxalin-1-yl}benzoyl)amino]phenyl}-1H-pyrazole-5-carboxamide]
Second: CC(C)CNc1nc2ccccc2n2c(-c3ccc(C(=O)Nc4cccc(NC(=O)c5ccncc5)c4)cc3)cnc12 [Example 3-27, N-{3-[(4-{4-[(2-methylpropyl)amino]imidazo[1,2-a]quinoxalin-1-yl}benzoyl)amino]phenyl}pyridine-4-carboxamide]
The IC50 of the first is 10-fold higher: 3.61 µM for the first, 0.349 µM for the second.

First: CC(C)CNc1nc2ccccc2n2c(-c3ccc(C(=O)NCCS(N)(=O)=O)cc3)cnc12 [Example 3-26, 4-{4-[(2-methylpropyl)amino]imidazo[1,2-a]quinoxalin-1-yl}-N-(2-sulfamoylethyl)benzamide]
Second: CC(C)CNc1nc2ccccc2n2c(-c3ccc(C(=O)Nc4cccc(NC(=O)c5cccnc5)c4)cc3)cnc12 [Example 3-28, N-{3-[(4-{4-[(2-methylpropyl)amino]imidazo[1,2-a]quinoxalin-1-yl}benzoyl)amino]phenyl}pyridine-3-carboxamide]
The IC50 of the first is 16-fold higher: 5.86 µM for the first, 0.361 µM for the second. The second is the more potent here.

With `CC(C)CNc1nc2ccccc2n2c(-c3ccc(C(=O)Nc4ccc(CN5CCN(C)CC5)c(C(F)(F)F)c4)cc3)cnc12` [Example 3-31, N-{4-[(4-methylpiperazin-1-yl)methyl]-3-(trifluoromethyl)phenyl}-4-{4-[(2-methylpropyl)amino]imidazo[1,2-a]quinoxalin-1-yl}benzamide] the IC50 was 4.57 µM.

— patent US8729082B2, “Substituted imidazoquinoxalines” (Bayer Intellectual Property GmbH, priority 2009, dated 2014)
